Entries after “also recorded” stand apart in the source; their conditions may differ.
Key:
[1] = AC-SINS self-interaction assay; type: physicochemical
Method: Variant CD80-Fc fusion proteins were assessed by measuring non-specific binding using a DNA- and insulin-binding ELISA (Avery et al., MAbs. 2018 February/March; 10(2): 244-255) and for self-interaction in an AC-SINS assay (affinity-capture self-interaction nanoparticle spectroscopy; Liu et al., 2014, mAbs 6:483-92). DNA- and insulin-binding scores were calculated as the signal ratio of the ELISA signal of the CD80-Fc fusion protein at 10 μg/ml to the ELISA signal in the absence of the Fc-fusion protein (buffer only). For the AC-SINS assay, proteins are captured by anti-human Fc antibodies coated on gold nanoparticles. […] The score ranges obtained from these in vitro assays correlate well with in vivo clearance using huFcRn transgenic (Tg32) mouse. Therapeutic proteins with high scores are at high risk for rapid clearance and unfavorable PK and therapeutics that score low are at low risk and favorable PK.

[2] = Thermal stability by Differential Scanning calorimetry (DSC); type: physicochemical
Method: There is a correlation between the thermal stability of a protein with the overall stability of the protein. Enhanced thermal stability often provides improved manufacturability and longer shelf life/stability. Thermal stability of variant CD80-Fc fusion proteins was assessed by Differential Scanning calorimetry (DSC). Variant CD80-Fc fusion proteins were analyzed using a MicroCal VP-DSC instrument. […] Tables 8-10 show the first thermal transition temperature (Tm1) of CD80-Fc fusion proteins and the enhanced thermal stability of variant CD80-Fc fusion proteins compared to CD80-WT-Fc fusion proteins.

[3] = system: Renca murine renal carcinoma tumor cells; assay: Renca murine renal carcinoma model; type: in vivo, mouse; settings: for % tumor growth inhibition: Day 18; for # IFNγ-producing spots (splenic tumor-reactive T cells): spleen Day 9, average of n = 4 mice; for CD8^+ T cell infiltrates (% CD45): Renca, ~1 week after first dose, n=4
Method: Renca murine renal carcinoma tumor cells (1 million) were subcutaneously implanted in the hind flank of female Balb/c mice. Five days after tumor implantation, PBS vehicle control or variant CD80-Fc fusion proteins were dosed intravenously at 0.3 and 1 mg/kg (on Day 0 and Day 3) or 3 mg/kg (Day 0, Day 3 and Day 6). Tumor volume was determined by caliper measurements obtained in 2 dimensions and calculated as width^2×length/2. Error bars are depicted as ±SEM.
Pharmacodynamic (PD) modulation with variant CD80-Fc fusion proteins was assessed by measuring tumor-reactive T cells in the spleen using IFNγ ELIspot. Single-cell suspensions were generated from dissociated spleens taken at Day 9 after the first dose of CD80-Fc. Splenocytes were incubated with irradiated tumor cells overnight at 37° C., and the number of IFNγ-producing spots were measured using the IFNγ ELIspot Kit (BD Biosciences #551083).
(§1) Cytotoxic CD8^+ T cells are responsible for killing cancer cells and the measurement of CD8^+ T cells that have infiltrated tumors commonly correlates with efficacy for immune-oncology therapies. For all in vivo studies, tumors were collected ˜1 week after the first dose and dissociated by mincing, followed by incubation in an enzymatic digestion cocktail and homogenization. The resulting cell suspension was filtered and washed, and single cells were stained with antibodies to CD45, CD8, and a viability dye to detect tumor-infiltrating lymphocytes (TILs) by flow cytometry. Data were acquired on a BD LSRFortessa flow cytometer or a Cytek Aurora spectral flow cytometer. Table 31 and FIG. 18 show the amount of tumor-infiltrating CD8+ T cells expressed as a percentage of total immune cells (CD45+). Each value is the average of n=4 mice per group. Treatment with all variant CD80-Fc fusion proteins led to increase in CD8+ TILs in various tumor models.

[4] = system: CT26 murine colorectal carcinoma tumor cells; assay: CT26 murine colorectal carcinoma model; type: in vivo, mouse; settings: for Day 10 tumor volume: Days 0 and 3; for % tumor growth inhibition: Day 10; for # IFNγ-producing spots (tumor-reactive T cells in spleen): average of n = 4 mice
Method: CT26 murine colorectal carcinoma tumor cells (1×10^6) were subcutaneously implanted in the hind flank of female Balb/c mice. When tumors reached ˜100 mm3 (Day 8), mice were randomized. PBS vehicle control or variant CD80-Fc fusion proteins were dosed intravenously at 0.1 and 1.0 mg/kg on Days 0 and 3. Tumor volume was determined by caliper measurements obtained in 2 dimensions and calculated as width^2×length/2. Error bars are depicted as ±SEM.
IFNγ ELIspot was used to measure tumor-reactive T cells in the spleen in mice treated with CD80-Fc fusion proteins at a 1 mg/kg dose.
as §1

human PD-L1 = human PD-L1 (Homo sapiens, UniProt Q9NZQ7); assay: SPR (Biacore) binding to immobilized human PD-L1; settings: Human PD-L1 immobilized at 60 μg/ml and 75 μg/ml
Method: (physiologic temperature) with a collection rate of 10 Hz. Purified soluble ligands were covalently coupled onto a CM5 sensor chip using an Amine coupling Kit (GE Healthcare, Product #BR100050) following the manufacturer's recommendations. […] The flow was again returned to running buffer and dissociation was monitored for 300 sec. Binding affinities and rate constants were determined by fitting the resulting double referenced (Myszka, D. G. J. Mol. Recognit. 12, 279-284 (1999)) sensorgram data to a 1:1 Langmuir model with Biacore Insight Evaluation software version 2.0 (GE Healthcare).
Binding of variant CD80-Fc to PD-L1 was not detected. FIG. 9A-9D show the SPR sensorgrams depicting binding of varying concentrations of CD80-WT-Fc and CD80-K89D-D90K-T28V-T57V-Fc to two different concentrations of immobilized human PD-L1 (60 μg/ml and 75 μg/ml).

[5] = Viscosity (Anton Paar rheometer); type: physicochemical; settings: 20 mM histidine, 8.5% sucrose, pH 5.8
Method: The viscosity of CD80-Fc fusion proteins was assessed at various concentrations. Lower viscosity is desired for subcutaneous administration, and providing optimal syringeability and minimal pain to patients. Viscosity was measured using an Anton Paar rheometer and a CP-25 measuring system at 150 rpm. The sample comprised CD80-Fc fusion proteins in 20 mM histidine and 8.5% sucrose at pH 5.8.

[6] = Pharmacokinetics in huFcRn transgenic mice; settings: 0.1 mg/kg IV; for Cmax: average of 3 animals
Method: PK of CD80-Fc fusion proteins was also assessed in transgenic mice expressing the human neonatal Fc receptor (huFcRn) a-chain transgene under the control of its natural human promoter. Female mice were dosed intravenously with CD80-Fc fusion proteins at 0.1 mg/kg, and blood was collected at the timepoints indicated on the graph. Levels of CD80-Fc in mouse plasma were measured as described above.

Chain of human PD-L1 (Q9NZQ7 19-238 limits assumed): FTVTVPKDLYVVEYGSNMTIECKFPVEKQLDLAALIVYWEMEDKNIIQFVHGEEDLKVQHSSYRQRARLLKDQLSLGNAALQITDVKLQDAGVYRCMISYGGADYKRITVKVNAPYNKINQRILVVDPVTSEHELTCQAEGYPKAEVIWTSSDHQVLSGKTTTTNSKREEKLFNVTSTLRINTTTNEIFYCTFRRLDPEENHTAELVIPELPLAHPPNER

Substance	AC-SINS Score ([1]; Table 6)	DSC Tm1 ([2]; PBS)	Number of tumor-free mice ([3]; 0.3 mg/kg)	Day 18 tumor volume ([3]; 0.3 mg/kg IV, Day 0 and 3)	% tumor growth inhibition ([3]; 0.3 mg/kg)	Number of tumor-free mice ([3]; 1 mg/kg)	Day 18 tumor volume ([3]; 1 mg/kg IV, Day 0 and 3)	% tumor growth inhibition ([3]; 1 mg/kg)	Number of tumor-free mice ([3]; 3 mg/kg)	Day 18 tumor volume ([3]; 3 mg/kg IV, Day 0, 3 and 6)	% tumor growth inhibition ([3]; 3 mg/kg)	# IFNγ-producing spots (splenic tumor-reactive T cells) ([3]; 3 mg/kg)	CD8^+ T cell infiltrates (% CD45) ([3]; 3 mg/kg)	Number of tumor regressions ([4]; 0.1 mg/kg)	Day 10 tumor volume ([4]; 0.1 mg/kg IV)	% tumor growth inhibition ([4]; 0.1 mg/kg)	Number of tumor regressions ([4]; 1 mg/kg)	Day 10 tumor volume ([4]; 1 mg/kg IV)	% tumor growth inhibition ([4]; 1 mg/kg)	# IFNγ-producing spots (tumor-reactive T cells in spleen) ([4]; 1 mg/kg)	further results
CD80-D90Q-Fc: variant CD80 ECD (D90Q) fused to human IgG1 Fc	0	59.83 ± 0.08 °C	4/10	248.2 ± 126.1 mm^3	81.4%	4/10	157.6 ± 64.2 mm^3	89.6%	8/10	72.0 ± 41.6 mm^3	97.1%	334.75	24.2 % CD45	0/10	728.3 mm^3	39.20%	6/10	295.8 mm^3	75.31%	341.6875	CD8^+ T cell infiltrates (% CD45) ([4]; CT26, 1 mg/kg, n=4): 27.4 % CD45
CD80-K89D-D90K-T28V-T57V-Fc: non-cysteine stabilized variant CD80-Fc fusion protein (K89D, D90K, T28V, T57V)		63.70 ± 0.07 °C																			AC-SINS Score ([1]; Table 7): −1; DSC Tm1 ([2]; Glu pH 4.5): 65.11 ± 0.23 °C; DSC Tm1 ([2]; His pH 5.8): 68.57 ± 0.74 °C; DSC Tm1 ([2]; Tris pH 7.5): 66.94 ± 1.6 °C; binding to PD-L1 (human PD-L1): undetectable; also recorded: No binding; Viscosity ([5]; 92.7 mg/ml): 12.1 cP; Viscosity ([5]; 119 mg/ml): 27.8 cP; AUC [6]: 147 µg·h/mL; CL [6]: 14 mL/day/kg; Vdss [6]: 0.082 L/kg; Cmax [6]: 2.3 µg/mL
CD80-K89Q-D90Q-E23C-A26C-Fc: disulfide stabilized variant CD80-Fc fusion protein (K89Q, D90Q, E23C, A26C)	−1	67.28 ± 0.2 °C												5/10	289.9 mm^3	75.80%	6/10	305.3 mm^3	74.51%	547.375	Viscosity ([5]; 107.0 mg/ml): 9.878 cP; Viscosity ([5]; 148.0 mg/ml): 30.16 cP; AUC [6]: 182 µg·h/mL; CL [6]: 8.6 mL/day/kg; T1/2 [6]: 211 h; Vdss [6]: 0.109 L/kg; Cmax [6]: 2.2 µg/mL
CD80-K89Q-D90Q-Fc: variant CD80 ECD (K89Q, D90Q) fused to human IgG1 Fc	0	59.67 ± 0.10 °C	2/10	743.2 ± 159.5 mm^3	37.4%	3/10	192.6 ± 89.3 mm^3	86.1%	8/10	43.2 ± 21.8 mm^3	99.8%	152.17	36.7 % CD45	1/10	857.6 mm^3	28.41%	5/10	299.0 mm^3	75.04%	569.5	Viscosity ([5]; 93.5 mg/ml): 32.8 cP; Viscosity ([5]; 120.6 mg/ml): 115.8 cP
CD80-WT-Fc: wild-type human CD80 extracellular domain fused to human IgG1 Fc (C220S) [reference compound]	0	59.52 ± 0.07 °C	5/10	199.0 ± 114.0 mm^3	85.6%	5/10	79.6 ± 25.5 mm^3	96.2%	6/7	73.0 ± 69.0 mm^3	93.7%	288.5	38.6 % CD45								AC-SINS Score ([1]; Table 7): 0; DSC Tm1 ([2]; Glu pH 4.5): 62.78 ± 0.03 °C; DSC Tm1 ([2]; His pH 5.8): 63.40 ± 0.35 °C; DSC Tm1 ([2]; Tris pH 7.5): 64.77 ± 0.14 °C; binding to PD-L1 (human PD-L1): detectable binding; Viscosity ([5]; 101.65 mg/ml): 35.7 cP; Viscosity ([5]; 132.25 mg/ml): 158.8 cP; # IFNγ-producing spots (splenic tumor-reactive T cells) ([3]; 0.3 mg/kg): 373.67; # IFNγ-producing spots (splenic tumor-reactive T cells) ([3]; 1 mg/kg): 271.08; AUC [6]: 97 µg·h/mL; CL [6]: 20.2 mL/day/kg; T1/2 [6]: 80 h; Vdss [6]: 0.087 L/kg; Cmax [6]: 2 µg/mL
